Patent US4092412A, “Treatment of herpes simplex infections” (Abbott Laboratories, priority 1977, dated 1978)

Key:
[1] = tested on: herpes simplex virus (HSV) type 1 or type 2; assay: Antiviral activity by plaque reduction method; type: cell-based, herpes simplex virus (in rabbit kidney cells); design: key: 0 = inactive; +2 = moderate activity; +4 = very active; conditions: rabbit kidney cells, plaques counted 3 to 4 days after infection
Description: Determination of Antiviral Activity by Plaque Reduction Method
The inhibitory effect of new compounds upon herpes simplex virus (HSV) type 1 or type 2 was analyzed by the plaque reduction assay. Confluent monolayers of rabbit kidney cells grown in 60 mm plastic petri dishes were infected with HSV by adsorption for 1 hour at room temperature. The appropriate concentration of the test compound was added at the time of initial virus infection. Following virus adsorption the cells were overlayed with Eagle's medium (BME) supplemented with 10% fetal bovine serum, 0.225% NaHCO3 and 0.5% methycellulose. The appropriate concentration of the test compound was also added to this overlay. Infected cultures were then incubated at 37° C. for the remainder of the test. Three to four days following virus infection, each culture was stained with crystal violet and the herpes virus induced plaques counted.

[2] = tested on: herpes simplex infections; assay: Topical test against herpes simplex infections in CF mice; type: in vivo; conditions: 10 mice per group, topical 2% aqueous solution, 11 applications, 14 day test
Description: The following test was applied to determine the effectiveness of the carboxylic esters of phosphonoacetic acid against herpes simplex infections in mice. The compounds tested included the compounds shown above as II and III. Also included were a standard virus control as well as a normal (no virus) control.
Herpes virus (10^7 TCID50 /ml) was applied topically (0.05 ml) to the denuded skin and impregnated into the dermis with a 24-gauge sterile hypodermic needle. In untreated animals, herpes lesions or vesicles usually develop in 3 to 5 days. The lesions form bands which extend over the denuded area. After approximately 10 days, mice usually develop a paralysis which results in their death. The test was allowed to continue for a total of 14 days.
Some of the animals were treated topically by having the drug applied to the site of infection as a 2% aqueous solution 2 hours after the virus was introduced into the skin, and twice daily for 5 consecutive days. The drug was applied a total of 11 times. A single application of a 2% drug solution delivered approximately 2 mg of material.
The Mann-Whitney "U" Test was used to statistically analyze the herpes infection in mice by making paired comparisons between the treated and untreated virus control groups. […]

[3] = biological target: T1, Herpes simplex type 2 deoxyribonucleic acid (DNA) polymerase (Human herpesvirus 2, UniProt P89453); assay: Viral DNA polymerase assay; type: biochemical, herpes simplex virus type 2; conditions: 50% inhibition of herpes simplex type 2 DNA polymerase; read-out: Concentration (μg/ml) giving 50% Percent Inhibition (converted)
T1 construct: made in house; host or cells: Herpes virus infected Wi-38 cells (native viral enzyme, not recombinant; DEAE-cellulose and phosphocellulose chromatography)
T1 sequence (P89453 1-1240): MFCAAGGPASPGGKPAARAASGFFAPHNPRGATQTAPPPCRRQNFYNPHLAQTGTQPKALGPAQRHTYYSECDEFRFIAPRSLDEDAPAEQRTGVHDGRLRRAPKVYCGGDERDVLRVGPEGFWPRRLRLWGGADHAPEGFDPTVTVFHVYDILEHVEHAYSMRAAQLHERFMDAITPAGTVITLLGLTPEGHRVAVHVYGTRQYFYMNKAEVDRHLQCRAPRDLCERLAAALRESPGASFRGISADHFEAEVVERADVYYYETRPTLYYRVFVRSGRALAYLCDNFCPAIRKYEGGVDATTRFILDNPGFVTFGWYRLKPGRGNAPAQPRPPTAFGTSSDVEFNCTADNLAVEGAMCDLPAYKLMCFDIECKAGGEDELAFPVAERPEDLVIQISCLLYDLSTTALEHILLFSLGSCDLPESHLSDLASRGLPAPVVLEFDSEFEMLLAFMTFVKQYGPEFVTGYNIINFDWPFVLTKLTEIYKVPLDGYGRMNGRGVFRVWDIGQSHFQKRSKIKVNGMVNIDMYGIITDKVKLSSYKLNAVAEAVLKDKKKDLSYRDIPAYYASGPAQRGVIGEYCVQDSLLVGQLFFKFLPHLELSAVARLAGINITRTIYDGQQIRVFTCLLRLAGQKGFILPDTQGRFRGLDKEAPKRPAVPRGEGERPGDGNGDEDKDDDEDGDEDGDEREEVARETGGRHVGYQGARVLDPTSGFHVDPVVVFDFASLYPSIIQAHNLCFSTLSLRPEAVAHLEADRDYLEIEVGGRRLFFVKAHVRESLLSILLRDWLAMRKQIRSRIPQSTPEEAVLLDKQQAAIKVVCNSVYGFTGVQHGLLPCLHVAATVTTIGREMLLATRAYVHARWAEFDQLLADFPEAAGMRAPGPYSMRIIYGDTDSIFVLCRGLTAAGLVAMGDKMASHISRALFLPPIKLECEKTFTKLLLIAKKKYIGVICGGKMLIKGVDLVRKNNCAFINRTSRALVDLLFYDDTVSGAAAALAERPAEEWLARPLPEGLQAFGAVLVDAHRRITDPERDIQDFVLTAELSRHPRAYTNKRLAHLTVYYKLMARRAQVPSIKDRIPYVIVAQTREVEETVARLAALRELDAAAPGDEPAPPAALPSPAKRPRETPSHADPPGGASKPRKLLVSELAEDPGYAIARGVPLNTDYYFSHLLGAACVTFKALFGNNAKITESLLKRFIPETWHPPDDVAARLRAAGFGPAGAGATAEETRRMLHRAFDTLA
Description: Isolation and Purification of Herpes Simplex Type 2 Deoxyribonucleic Acid (DNA) Polymerase
The DNA polymerase was isolated according to the procedure of Smith and Gallo (1972) which involved column chromatography on DEAE-cellulose and phosphocellulose. However, buffer containing 20% glyceryl instead of 10% was used. The final enzyme preparation has a specific activity of 313 unit/mg. for herpes simplex virus type 2.
Viral Deoxyribonucleic Acid (DNA) Polymerase Assay
The reaction mixture (0.2 ml.) contains 10 μM of 2'-deoxyadenosine-5'-triphosphate, 2'-deoxycytidine-5'-triphosphate, 2'-deoxyguanosine-5'-triphosphate, and 2.5 μM tritium labeled thymidine-5'-triphosphate which was appropriately diluted with unlabeled dTTP to give 880 counts per minute per pico-mole, 10 μg of activated calf thymus DNA 50 mM Tris-HCl buffer (pH 8.0), 3mM MgCl2, 100 mM KCl and 1 mM dithiothritol. The amounts of enzyme used in each reaction was chosen to give a linear rate for at least 30 minutes at 37° C. The reaction was terminated by the addition of 3 ml. of cold 5% trichloroacetic acid - 0.01 M sodium pyrophosphate. The acid-insoluble material was collected, washed twice on glass filter discs (Reeve Angel 984-H) and the incorporated ^3 H-dTMP was determined by a liquid scintillation counter.

Row | SMILES | Inhibition of plaques [1] | No. of Mice Dead [2] | No. of Mice Paralyzed [2] | IC50 [3]
1 | COC(=O)CP(=O)(O)O [Compound III, Methyl Phosphonoacetate] | +2 | 5 | 2 | 45.4 µM
2 | CCOC(=O)CP(=O)(O)O [Compound II, Ethyl Phosphonoacetate] | +4 | 3 | 2 | 23.2 µM
